Legend:
UT-SCC-14 = assay: Tumor cell proliferation (alamarBlue) cytotoxicity assay, UT-SCC-14; format: cell-based, human; conditions: Homo sapiens; UT-SCC-14, 72 hours treatment
Description: (§1) A tumor cell proliferation assay was used to determine cytotoxicity IC50 values for the phosphate prodrug Compounds 1-9, the parent non-phosphorylated SMDC parent compounds, and the effector (gemcitabine) across eight primary early-passage human head and neck squamous cell carcinoma cell lines including UT-SCC-5, UT-SCC-8, UT-SCC-9, UT-SCC-10, UT-SCC-14, UT-SCC-16A, UT-SCC-16B, and UT-SCC-24A.
(§2) UTSCC cells were seeded at 4000 cells/100 I/well on 96-well black clear-bottom tissue culture plate. Cells were incubated at 37° C. and 5% CO2 overnight to allow them to recover and re-attach. The next day cells were treated with the test compound (0-100 μM) for 72 hours. After treatment, cell proliferation was measured by Fluorescent quantitation of alamarBlue reagent. The alamarBlue assay incorporates a fluorometric/colorimetric growth indicator based on detection of metabolic activity. Specifically, resazurin, the active ingredient of alamarBlue reagent, is blue in color and virtually non-fluorescent. Upon entering cells, resazurin is reduced to resorufin, a compound that is red in color and highly fluorescent.
(§3) Continued cell growth maintains a reduced environment, therefore increasing the overall fluorescence and color of the media surrounding cells. The fluorescence intensity of alamarBlue reagent was directly proportional to cell number. To perform the alamarBlue assay, 10 I of alamarBlue reagent was added to each well and the plate was incubated at 37° C. for an additional 2 hour. Fluorescence intensity was measured at an excitation of 530 nm and an emission of 590 nm using a BioTek Synergy™ 2 microplate reader.
(§4) Cell proliferation assays in triplicate were performed at each concentration. The fluorescent intensity data were analyzed using the computer software, Graphpad Prism. In the absence of the compound, the fluorescent intensity (Ft) in each data set was defined as 100%. In the absence of cells, the fluorescent intensity (Fb) in each data set was defined as 0%. The percent cell in the presence of each compound was calculated according to the following equation: % cell=(F−Fb)/(Ft−Fb), where F=the fluorescent intensity in the presence of the compound, Fb=the fluorescent intensity in the absence of cells, and Ft=the fluorescent intensity in the absence of the compound. The values of % cell versus a series of compound concentrations were then plotted using non-linear regression analysis of Sigmoidal dose-response curve generated with the equation Y=B+(T−B)/1+10^((Log EC50-X)×Hill Slope) where Y=percent cell, B=minimum percent cell, T=maximum percent cell, X=logarithm of compound and Hill Slope=slope factor or Hill coefficient. The IC50 value was determined by the concentration causing a half-maximal percent activity.

UT-SCC-5 = assay: Tumor cell proliferation (alamarBlue) cytotoxicity assay, UT-SCC-5; format: cell-based, human; conditions: Homo sapiens; UT-SCC-5, 72 hours treatment
Description: as §1, §2, §3, §4

[1] = Metabolic stability in liver hepatocytes, monkey; format: in vitro ADME
UT-SCC-9 = assay: Tumor cell proliferation (alamarBlue) cytotoxicity assay, UT-SCC-9; format: cell-based, human; conditions: Homo sapiens; UT-SCC-9, 72 hours treatment
Description: as §1, §2, §3, §4

UT-SCC-10 = assay: Tumor cell proliferation (alamarBlue) cytotoxicity assay, UT-SCC-10; format: cell-based, human; conditions: Homo sapiens; UT-SCC-10, 72 hours treatment
Description: as §1, §2, §3, §4

[2] = Metabolic stability in liver hepatocytes, rat; format: in vitro ADME
[3] = Metabolic stability in liver hepatocytes, mouse; format: in vitro ADME
UT-SCC-24A = assay: Tumor cell proliferation (alamarBlue) cytotoxicity assay, UT-SCC-24A; format: cell-based, human; conditions: Homo sapiens, 72 hours treatment
Description: as §1, §2, §3, §4

[4] = Liver microsomal stability, human; format: in vitro ADME; conditions: for microsomal CLint: human, liver microsomes
[5] = Metabolic stability in liver hepatocytes, human; format: in vitro ADME
[6] = Int 1-4 plasma PK in the male cynomolgus monkey (study f); format: in vivo; conditions: for C0: read-out: C0; for MRT inf: read-out: MRT0-inf; for MRT last: read-out: MRT0-last; for Vd: read-out: Vdss
Description: Objectives: to compare the plasma pharmacokinetics and stability of Int 1-4 in plasma following single intravenous infusion administration of Int 1-4 at 5 mg/kg and 10 mg/kg in the male cynomolgus monkey
PK measurements: compare PK parameters C0, CL, Vdss, Cmax, tmax, t, AUC(0-t), AUC(0-inf), MRT(0-t), MRT(0-inf) for Int 1-4

[7] = Int 1-4 dog plasma PK (study j); format: in vivo; conditions: male beagle dog; for AUC(0-inf): read-out: AUC0-inf; for MRT inf: read-out: MRT0-inf; for MRT last: read-out: MRT0-last; for Vd: read-out: Vdss
Description: Objectives: to compare the plasma pharmacokinetics and stability of Int 1-4 in plasma following single intravenous infusion administration of t 1-4 at 10 mg/kg and 20 mg/kg in the male Beagle dog.

[8] = negative value indicates compound is stable, read-out: t1/2 mean ± SE
[9] = after iv Int 1-4 5 mg/kg (study f)
[10] = after iv Int 1-4 10 mg/kg (study f)
[11] = after iv Int 1-4 10 mg/kg (study j)
[12] = after iv Int 1-4 20 mg/kg (study j)

Slope Mean ± SE [1]: −0.005018 ± 0.001425 | half-life [1, 8]: 138 ± 39.2 min | Slope Mean ± SE [2]: −0.007701 ± 0.001794 | half-life [2, 8]: 90 ± 21 min | Slope Mean ± SE [3]: −0.006655 ± 0.00081 | half-life ([3]; read-out: t1/2 mean ± SE): 104 ± 12.7 min | half-life ([4]; human liver microsomes): 1850 min | Compound Remaining (% of 0 min) 0 min ([4]; human liver microsomes, 0 min): 100 % of 0 min | Compound Remaining (% of 0 min) 5 min ([4]; human liver microsomes, 5 min): 111 % of 0 min | Compound Remaining (% of 0 min) 15 min ([4]; human liver microsomes, 15 min): 94.0 % of 0 min | Compound Remaining (% of 0 min) 30 min ([4]; human liver microsomes, 30 min): 107 % of 0 min | Compound Remaining (% of 0 min) 45 min ([4]; human liver microsomes, 45 min): 99.9 % of 0 min | Compound Remaining (% of 0 min) control ([4]; human liver microsomes, control): 102 % of 0 min | microsomal CLint [4]: 0.747 µL/min/mg | microsomal CLint ([4]; text value): 0.75 µL/min/mg | Slope Mean ± SE [5]: −0.003031 ± 0.001361 | half-life ([5]; read-out: t1/2 mean ± SE): 229 ± 103 min | AUC(0-inf) [6, 9]: 5470 ng·h/mL | AUC(0-t) [6, 9]: 5460 ng·h/mL | clearance [6, 9]: 15.4 mL/min/kg | half-life [6, 9]: 43.8 min | C0 [6, 9]: 81 µg/mL | MRT inf [6, 9]: 19.8 min | MRT last [6, 9]: 18.6 min | Vd [6, 9]: 0.301 L/kg | AUC(0-inf) [6, 10]: 17400 ng·h/mL | AUC(0-t) [6, 10]: 17400 ng·h/mL | clearance [6, 10]: 9.65 mL/min/kg | half-life [6, 10]: 55.8 min | C0 [6, 10]: 166 µg/mL | MRT inf [6, 10]: 26.4 min | MRT last [6, 10]: 25.8 min | Vd [6, 10]: 0.253 L/kg | AUC(0-t) [7, 11]: 4730 ng·h/mL | C0 [7, 11]: 60.5 µg/mL | clearance [7, 11]: 35.2 mL/min/kg | half-life [7, 11]: 32.4 min | AUC(0-inf) [7, 11]: 4740 ng·h/mL | MRT inf [7, 11]: 14.4 min | MRT last [7, 11]: 13.8 min | Vd [7, 11]: 0.504 L/kg | AUC(0-t) [7, 12]: 7930 ng·h/mL | C0 [7, 12]: 90.9 µg/mL | clearance [7, 12]: 43.3 mL/min/kg | half-life [7, 12]: 31.2 min | AUC(0-inf) [7, 12]: 7940 ng·h/mL | MRT inf [7, 12]: 13.8 min | MRT last [7, 12]: 13.2 min | Vd [7, 12]: 0.58 L/kg
Structure (SMILES): COc1cc(OC)c2oc(COC(=O)Nc3ccn([C@@H]4O[C@H](CO)[C@@H](O)C4(F)F)c(=O)n3)cc2c1 [Int 1-4, (5,7-di(methoxy)benzofuran-2-yl)methyl (1-((2R,4R,5R)-3,3-difluoro-4-hydroxy-5-(hydroxymethyl)tetrahydrofuran-2-yl)-2-oxo-1,2-dihydropyrimidin-4-yl)carbamate]
IC50 (UT-SCC-14): 13 nM | IC50 (UT-SCC-5): 16 nM | IC50 (UT-SCC-9): 39 nM | IC50 (UT-SCC-10): 9 nM | IC50 (UT-SCC-24A): 20 nM

Source: patent publication US11760773B2, “Small molecule drug conjugates of gemcitabine monophosphate” (MaveriX Oncology, Inc., priority 2018, dated 2023)
